# Experimental data as given in patent US4988497A, “Process for the optical determination of lipase” (Boehringer Mannheim GmbH, priority 1985, dated 1991).
# Assays:
# [1] = test system: carboxyl esterase (EC 3.1.1.1); experiment: esterase sensitivity; assay type: biochemical; details: for esterase sensitivity (activity 20,000 U/l): 100 μl carboxyl esterase about 20,000 U/l, 578 nm; for Esterase sensitivity: emulsion prepared as in Example 22
# Procedure: (§1) 1.2 g. Sodium desoxycholate and 0.15 mg. colipase (from the pig) are dissolved in 60 ml. distilled water, with stirring. A solution of 70 mg. of the lipase substrate 1,2-0-dioctyl-rac-glycero-3-azelaic acid resorufin ester (Example 4) in 1.7 ml. n-propanol are injected herein under pressure in the thinnest possible stream, with vigorous stirring. A solution which, in 200 ml. distilled water, contains 1.5 g. urea, 1 g. sodium desoxycholate, 200 mg. sodium chloride, 800 mg. TRIS and 107 mg. TRIS.HCl, is well mixed with the above-produced emulsion.
# (§2) 2.5 ml. of the so produced solution are mixed with 100 μ. of sample (serum). The reaction is monitored photometrically at 578 nm Hg.
# For the determination of the esterase sensitivity, instead of the sample there were added 100 μl. carboxyl esterase (EC 3.1.1.1; about 20,000 U/1. Boehringer Mannheim GmbH, Order No. 10 46 98) and the extinction change monitored as described above.
# [2] = blank change (water instead of sample); assay type: physicochemical; details: 100 μl water instead of sample; extinction change at 578 nm
# Procedure: as §1, §2
# The blank change was determined with a reagent according to Example 1 and various lipase substrates. Instead of the sample, 100 μ1. water were added and the extinction change monitored photometrically at 578 nm (ΔmE/min.).
# lipase (EC 3.1.1.3) [3] = experiment: lipase sensitivity; assay type: biochemical; details: for lipase sensitivity (activity 100 U/l): 100 μl lipase about 100 U/l, 578 nm
# Procedure: as §1, §2
# For the determination of the lipase sensitivity, instead of the sample there were added 100 μl. lipase (EC 3.1.1.3; about 100 U/1., Boehringer Mannheim GmbH, Order No. 41 45 90) and the extinction change monitored as described above.
# [4] = blank change (water instead of sample); assay type: physicochemical
# lipase (EC 3.1.1.3) [5] = experiment: lipase sensitivity; assay type: biochemical
# [6] = emulsion prepared as in Example 22
# [7] = taurodesoxycholate/TRIS reagent pH 7.5, 578 nm
# [8] = fluorometric, 25° C., excitation 364 nm, emission 448 nm
"esterase sensitivity (activity 20,000 U/l) [1]",blank [2],lipase sensitivity (activity 100 U/l) (lipase (EC 3.1.1.3) [3]),Structure (SMILES),further results
> 1000 ΔmE/min,13.2 ΔmE/min,,"CCCCCCOCC(COC(=O)CCCC(=O)Oc1ccc2nc3ccc(=O)cc-3oc2c1)OCCCCCC (racemic) [Example 1, 1,2-O-Dihexyl-rac-glycero-3-glutaric acid resorufin ester]",
112.5 ΔmE/min,3.9-4.1 ΔmE/min,12.28 ΔmE/min,"CCCCCCCCOCC(COC(=O)CCCCCC(=O)Oc1ccc2nc3ccc(=O)cc-3oc2c1)OCCCCCCCC (racemic) [Example 3, 1,2-O-dioctyl-rac-glycero-3-pimelic acid resorufin ester]",
30.2 ΔmE/min,2.4-3.0 ΔmE/min,22.18 ΔmE/min,"CCCCCCCCCCOCC(COC(=O)CCCC(=O)Oc1ccc2nc3ccc(=O)cc-3oc2c1)OCCCCCCCCCC (racemic) [Example 5, 1,2-O-Didecyl-rac-glycero-3-glutaric acid resorufin ester]",
34.8 ΔmE/min,2.4-3.0 ΔmE/min,10.9 ΔmE/min,"CCCCCCCCCCCCOCC(COC(=O)CCCC(=O)Oc1ccc2nc3ccc(=O)cc-3oc2c1)OCCCCCCCCCCCC (racemic) [Example 7, 1,2-O-Dilauryl-rac-glycero-3-glutaric acid resorufin ester]",
48.7 ΔmE/min,1.3-2.0 ΔmE/min,9.8 ΔmE/min,"CCCCCCCCCCOCC(COC(=O)CCCCCC(=O)Oc1ccc2nc3ccc(=O)cc-3oc2c1)OCCCCCCCCCC (racemic) [Example 20, 1,2-0-Didecyl-rac-glycero-3-pimelic acid resorufin ester]",
1.8 ΔmE/min,0.1 ΔmE/min,0.97 ΔmE/min,"CCCCCCCCCCCCCCCCOC[C@H](COC(=O)CCCC(=O)Oc1ccc2nc3ccc(=O)cc-3oc2c1)OCCCCCCCCCCCCCCCC [Example 11, 1,2-O-Dihexadecyl-sn-glycero-3-glutaric acid resorufin ester]",

# Further lines, the compound ahead of its results:
Structure (SMILES),"esterase sensitivity (activity 20,000 U/l) [1]",blank [2],lipase sensitivity (activity 100 U/l) (lipase (EC 3.1.1.3) [3]),further results
"CCCCCCCCOCC(COC(=O)CCCC(=O)Oc1ccc2nc3ccc(=O)cc-3oc2c1)OCCCCCCCC (racemic) [Example 2, 1,2-O-Dioctyl-rac-glycero-3-glutaric acid resorufin ester]",144.0 ΔmE/min,7.0 ΔmE/min,~ 100 ΔmE/min,
"CCCCCCCCOCC(COC(=O)CCCCCCCC(=O)Oc1ccc2nc3ccc(=O)cc-3oc2c1)OCCCCCCCC (racemic) [Example 4, 1,2-O-dioctyl-rac-glycero-3-azelaic acid resorufin ester]",33.6 ΔmE/min,0.4-0.8 ΔmE/min,18.04 ΔmE/min,
"CCCCCCCCCCCOCC(COC(=O)CCCC(=O)Oc1ccc2nc3ccc(=O)cc-3oc2c1)OCCCCCCCCCCC (racemic) [Example 6, 1,2-O-Diundecyl-rac-glycero-3-glutaric acid resorufin ester]",23.6 ΔmE/min,2.0-2.8 ΔmE/min,6.96 ΔmE/min,
"CCCCCCCCCCCCOCC(COC(=O)CCCCCC(=O)Oc1ccc2nc3ccc(=O)cc-3oc2c1)OCCCCCCCCCCCC (racemic) [Example 8, 1,2-O-Dilauryl-rac-glycero-3-pimelic acid resorufin ester]",27.8 ΔmE/min,2.1-2.4 ΔmE/min,4.68 ΔmE/min,
"CCCCCCCCCCCCOCC(COC(=O)CCCCCCCC(=O)Oc1ccc2nc3ccc(=O)cc-3oc2c1)OCCCCCCCCCCCC (racemic) [Example 21, 1,2-0-Dilauryl-rac-glycero-3-azelaic acid resorufin ester]",9.5 ΔmE/min,9.8-11.9 ΔmE/min,13.2 ΔmE/min,
"CCCCCCCCCCCCOCC(COC(=O)CCCCCCCCCCCCC(=O)Oc1ccc2nc3ccc(=O)cc-3oc2c1C)OCCCCCCCCCCCC (racemic) [Example 28, 1,2-0-Dilauryl-rac-glycero-3-tetradecandiacid (6-methylresorufin) ester]",,,,"blank [4, 6]: 0.2 mE/min; Lipase sensitivity (lipase (EC 3.1.1.3) [3]; [6]): 23.6 mE/min per 100 U/1; Esterase sensitivity [1]: 0.7 mE/min"
"CCCCCCCCCCCCOCC(COC(=O)CCCC(=O)Oc1ccc2nc3ccc(=O)cc-3oc2c1C)OCCCCCCCCCCCC (racemic) [Example 29, 1,2-0-Dilauryl-rac-qlycero-3-glutaric-acid (6-methyl-resorufin)-ester]",,,,"blank [4, 7]: 0.4 mE/min; Lipase sensitivity (lipase (EC 3.1.1.3) [5]; [7]): 28 mE/min per 100 U/l"
"CCCCCCCCCCCCOCC(COC(=O)CCCC(=O)Oc1ccc2c(C)cc(=O)oc2c1)OCCCCCCCCCCCC (racemic) [Example 31, 1,2-0-Dilauryl-rac-glycero-3-glutaric acid-(4-methylumbelliferyl)-ester]",,,,"blank [4, 8]: 0.4 mE/min; Lipase sensitivity (lipase (EC 3.1.1.3) [5]; [8]): 28 mE/min per 100 U/1"
"CCCCCCCCCCCCOCC(COC(=O)CCCC(=O)Sc1ccc([N+](=O)[O-])cc1)OCCCCCCCCCCCC (racemic) [Example 32, 1,2-0-Dilauryl-rac-glycero-3-qlutaric acid-(p-nitrothiophenyl)-ester]",,,,"blank ([4]; CHES reagent pH 8.3, 405 nm): 0.3 mE/min; Lipase sensitivity (lipase (EC 3.1.1.3) [5]; CHES reagent pH 8.3, 405 nm): 12.2 mE/min per 100 U/1"
"CCCCCCCCCCCCCCCCC(COCC(COC(=O)CCCC(=O)Oc1ccc2nc3ccc(=O)cc-3oc2c1C)OC)OC (racemic) [Example 33, 1-0-(2-Methoxy-octadecyl)-2-0-methyl-rac-glycero-3-glutaric acid-(6-methylresorufin) ester]",,,,"blank [4, 6]: 8.4 mE/min; Lipase sensitivity (lipase (EC 3.1.1.3) [3]; [6]): 19.0 mE/min per 100 U/1; Esterase sensitivity [1]: 25.3 mE/min"
"CCCCCCCCCCCCOCC(COC(=O)CCC(=O)Oc1ccc2nc3ccc(=O)cc-3oc2c1)OCCCCCCCCCCCC (racemic) [Example 34, 1,2-0-Dilauryl-rac-glycero-3-succinic acid resorufin ester]",,,,Lipase sensitivity (lipase (EC 3.1.1.3) [3]; [6]): 8.7 mE/min per 100 U/1
"CCCCCCCCCCCCOCC(CSC(=O)CCCC(=O)Oc1ccc2nc3ccc(=O)cc-3oc2c1C)OCCCCCCCCCCCC (racemic) [Example 36, 1,2-0-Dilauryl-rac-3-thioglycero-3-S-glutaric acid (6-methylresorufin) ester]",,,,Lipase sensitivity (lipase (EC 3.1.1.3) [3]; [6]): 4.1 mE/min per 100 U/1; Esterase sensitivity [1]: 1.3 mE/min
"CCCCCCCCCCCCSCC(COC(=O)CCCC(=O)Oc1ccc2nc3ccc(=O)cc-3oc2c1C)SCCCCCCCCCCCC (racemic) [Example 37, 1,2-S-Dilauryl-rac-1,2-dithioglycero-3-glutaric acid (6-methylresorufin) ester]",,,,"blank [4, 6]: 3 mE/min; Lipase sensivity (lipase (EC 3.1.1.3) [3]; emulsion prepared as in Example 22, no lipase activity printed): 24 mE/min; Esterase sensitivity [1]: 3.4 mE/min"
CCCCCCCCCCCCCCCCC(COC(=O)CCCC(=O)Oc1ccc2nc3ccc(=O)cc-3oc2c1C)OCCCCCCCCCCCC (stereo not shown) [Example 35],,,,Lipase sensitivity (lipase (EC 3.1.1.3) [3]; [6]): 25.5 mE/min per 100 U/1; Esterase sensitivity [1]: 1.0 mE/min
